A word on the inhibition in vivo: it is the share of the control response that was lost under treatment. By inhibition is commonly meant how much of the control response was suppressed.

Each structure is given as a SMILES string.

Common to all, as to type: functional
Assay [1] concerns Tobacco mosaic virus. Briefly: In vivo antiviral activity against Tobacco mosaic virus (TMV) inoculated right side of Nicotiana. tabacum L. leaves assessed as protection effect at 500 ug/mL preincubated 12 hr before viral challenge measured after 3 to 4 days.
The test system of assay [2] is Tobacco mosaic virus. Briefly: In vivo antiviral activity against Tobacco mosaic virus (TMV) pre-inoculated Nicotiana. tabacum L. leaves assessed as curative effect at 100 ug/mL measured after 3 to 4 days.
Assay [3] deals with Tobacco mosaic virus. Briefly: In vivo antiviral activity against Tobacco mosaic virus (TMV) inoculated left side of Nicotiana. tabacum L. leaves assessed as inactivation effect at 500 ug/mL co-incubated with virus measured after 3 to 4 days.
Assay [4] concerns Tobacco mosaic virus. Briefly: Antiviral activity against Tobacco mosaic virus (TMV) inoculated in 5-6 growth stage leaf assessed as inhibition effect at 500 ug/mL at 25 degC after 72 hr by half-leaf method.
Assay [5] concerns Tobacco mosaic virus. Briefly: In vivo antiviral activity against Tobacco mosaic virus (TMV) inoculated left side of Nicotiana. tabacum L. leaves assessed as inactivation effect at 100 ug/mL co-incubated with virus measured after 3 to 4 days.
Assay [6] deals with Tobacco mosaic virus. Briefly: Antiviral activity against Tobacco mosaic virus (TMV) inoculated in 5-6 growth stage leaf assessed as inhibition effect at 100 ug/mL at 25 degC after 72 hr by half-leaf method.
Assay [7] concerns Tobacco mosaic virus. Briefly: In vivo antiviral activity against Tobacco mosaic virus (TMV) inoculated right side of Nicotiana. tabacum L. leaves assessed as protection effect at 100 ug/mL preincubated 12 hr before viral challenge measured after 3 to 4 days.
Assay [8] relates to Tobacco mosaic virus. Briefly: In vivo antiviral activity against Tobacco mosaic virus (TMV) pre-inoculated Nicotiana. tabacum L. leaves assessed as curative effect at 500 ug/mL measured after 3 to 4 days.
The test system of assay [9] is Tobacco mosaic virus. Briefly: Antiviral activity against Tobacco mosaic virus (TMV) assessed as inhibition effect at 500 ug/mL.
Assay [10] has as its system Tobacco mosaic virus. Briefly: Antiviral activity against Tobacco mosaic virus (TMV) assessed as inhibition effect at 1 ug/mL.

As for `COc1cc2c3c(c4cc(OC)c(OC)cc4c2cc1OC)[C@H](NC(C)=O)[C@@H]1CCCN1C3`, the inhibition in vivo at 500 µg/mL with Tobacco mosaic virus [1] was determined as 41.5%; in the assay with Tobacco mosaic virus [3], 46.4%; in the assay with Tobacco mosaic virus [8], 37.4%. For the same compound, the inhibition in vivo at 100 µg/mL in the assay on Tobacco mosaic virus [2] came to 25.3%; with Tobacco mosaic virus [5] it was 31.1%; in the assay on Tobacco mosaic virus [7], 29.3%. Moreover, in the assay on Tobacco mosaic virus [4], the inhibition at 500 µg/mL turned out to be 34.7%. For the same compound, in the assay with Tobacco mosaic virus [6], the inhibition at 100 µg/mL turned out to be 21.1%.

Consider `CCCCN[C@H]1c2c(c3cc(OC)c(OC)cc3c3cc(OC)ccc23)CN2CCC[C@@H]12`, for which the inhibition in vivo at 500 µg/mL turned out to be 65.5% with Tobacco mosaic virus [1], 58.9% in the assay on Tobacco mosaic virus [3] and 60.2% in the assay with Tobacco mosaic virus [8]. For the same compound, the figures for the inhibition in vivo at 100 µg/mL in the assay on Tobacco mosaic virus [2], in the assay on Tobacco mosaic virus [5] and with Tobacco mosaic virus [7] were 25.9%, 30% and 34.9%, respectively. For the same compound, the inhibition at 500 µg/mL in the assay with Tobacco mosaic virus [4] is 62.3%. The inhibition at 100 µg/mL with Tobacco mosaic virus [6] came out at 28.4%.

Regarding `O=C1NCNC(=O)N1`, the inhibition at 500 µg/mL in the assay on Tobacco mosaic virus [9] was found to be 50%.

As for `CC(=O)N1CN(C(C)=O)C(=O)NC1=O`, the inhibition at 500 µg/mL with Tobacco mosaic virus [9] came out at 50%.

In the case of `NC(=O)c1ncn([C@@H]2O[C@H](CO)[C@@H](O)[C@H]2O)n1` [RIBAVIRIN], the inhibition in vivo at 500 µg/mL was determined as 38.9% in the assay on Tobacco mosaic virus [1], 33.8% in the assay with Tobacco mosaic virus [3] and 36.7% with Tobacco mosaic virus [8]. Besides, the values for the inhibition in vivo at 100 µg/mL in the assay with Tobacco mosaic virus [2], in the assay on Tobacco mosaic virus [5] and with Tobacco mosaic virus [7] were 8.2%, 9.8% and 7.5%, respectively. Further, in the assay with Tobacco mosaic virus [4], the inhibition at 500 µg/mL was determined as 41%. Moreover, in the assay on Tobacco mosaic virus [6], the inhibition at 100 µg/mL is 19.6%.

With `COc1ccc2c3c(c4cc(OC)c(OC)cc4c2c1)[C@H](N)[C@@H]1CCCN1C3`, the inhibition in vivo at 500 µg/mL with Tobacco mosaic virus [1] amounted to 44.4%; in the assay with Tobacco mosaic virus [3], 41.9%; with Tobacco mosaic virus [8], 42.3%. For the same compound, the inhibition in vivo at 100 µg/mL is 29.6% with Tobacco mosaic virus [2], 32.1% in the assay on Tobacco mosaic virus [5] and 30.1% in the assay on Tobacco mosaic virus [7]. Also, the inhibition at 500 µg/mL in the assay on Tobacco mosaic virus [4] stood at 48.2%. Moreover, the inhibition at 100 µg/mL in the assay on Tobacco mosaic virus [6] turned out to be 32.5%.

For `CNCC(=O)N[C@@H](CO)C(=O)N[C@H]1[C@H](O)[C@@H](O)[C@H](n2ccc(N)nc2=O)O[C@@H]1C(N)=O` [NINGNANMYCIN], the inhibition in vivo at 500 µg/mL in the assay on Tobacco mosaic virus [1] turned out to be 66.6%; in the assay with Tobacco mosaic virus [3], 68.5%; in the assay on Tobacco mosaic virus [8], 56%. The inhibition in vivo at 100 µg/mL in the assay on Tobacco mosaic virus [2] was determined as 18.9%; with Tobacco mosaic virus [5], 37.7%; with Tobacco mosaic virus [7] it was 25.2%. Further, the inhibition at 500 µg/mL in the assay with Tobacco mosaic virus [4] is 70.2%. The inhibition at 100 µg/mL in the assay on Tobacco mosaic virus [6] was 23.9%.

For `COc1ccc2c3c(c4cc(OC)c(OC)cc4c2c1)C[C@H]1CCCN1C3` [(-)-ANTOFINE], in the assay on Tobacco mosaic virus [10], the inhibition at 1 µg/mL turned out to be 63%.

`COc1cc2c3c(c4cc(OC)c(OC)cc4c2cc1OC)[C@H](NC(=O)C(C)(C)C)[C@@H]1CCCN1C3`: the inhibition in vivo at 500 µg/mL with Tobacco mosaic virus [1] amounted to 38.9%; in the assay on Tobacco mosaic virus [3], 28.5%; with Tobacco mosaic virus [8], 38.5%. In addition, the inhibition in vivo at 100 µg/mL in the assay on Tobacco mosaic virus [2] worked out at 26.3%; in the assay with Tobacco mosaic virus [5], 16.9%; with Tobacco mosaic virus [7] it was 22%. The inhibition at 500 µg/mL in the assay on Tobacco mosaic virus [4] came to 42.4%. In the assay on Tobacco mosaic virus [6], the inhibition at 100 µg/mL was determined as 23.1%.

With `CCCCN[C@@H]1c2c(c3cc(OC)c(OC)cc3c3cc(OC)ccc23)CN2C(=O)CC[C@H]12`, the inhibition in vivo at 500 µg/mL in the assay on Tobacco mosaic virus [1] is 48.2%; in the assay on Tobacco mosaic virus [3], 49.4%; in the assay with Tobacco mosaic virus [8] it was 41.7%. In addition, the values for the inhibition in vivo at 100 µg/mL with Tobacco mosaic virus [2], with Tobacco mosaic virus [5] and with Tobacco mosaic virus [7] were 23.6%, 25.4% and 20.5%, respectively. For the same compound, the inhibition at 500 µg/mL in the assay with Tobacco mosaic virus [4] came to 38.2%. For the same compound, the inhibition at 100 µg/mL with Tobacco mosaic virus [6] amounted to 17.5%.

On to `COc1cc2c3c(c4ccc(O)cc4c2cc1OC)CN1CCC[C@@H]1C3`, for which, in the assay with Tobacco mosaic virus [10], the inhibition at 1 µg/mL was determined as 70%.

Turning to `CCCCN[C@H]1c2c(c3cc(OC)c(OC)cc3c3cc(OC)ccc23)CN2C(=O)CC[C@@H]12`, the inhibition in vivo at 500 µg/mL is 50.3% in the assay with Tobacco mosaic virus [1], 47.2% in the assay on Tobacco mosaic virus [3] and 47.5% with Tobacco mosaic virus [8]. For the same compound, the inhibition in vivo at 100 µg/mL in the assay on Tobacco mosaic virus [2] turned out to be 20.3%; in the assay on Tobacco mosaic virus [5] it was 25.6%; with Tobacco mosaic virus [7], 26.2%. Besides, the inhibition at 500 µg/mL in the assay on Tobacco mosaic virus [4] was 52.5%. Moreover, the inhibition at 100 µg/mL with Tobacco mosaic virus [6] is 30%.

For `CCCCN[C@@H]1c2c(c3cc(OC)c(OC)cc3c3cc(OC)ccc23)CN2C(=O)CC[C@@H]12`, the inhibition in vivo at 500 µg/mL came out at 54.8% in the assay with Tobacco mosaic virus [1], 50% with Tobacco mosaic virus [3] and 52.5% with Tobacco mosaic virus [8]. The inhibition in vivo at 100 µg/mL in the assay on Tobacco mosaic virus [2] came out at 24.3%; in the assay on Tobacco mosaic virus [5], 27.6%; with Tobacco mosaic virus [7], 28.6%. The inhibition at 500 µg/mL in the assay with Tobacco mosaic virus [4] was 45.7%. In addition, the inhibition at 100 µg/mL in the assay on Tobacco mosaic virus [6] stood at 20%.

For `COc1cc2c3c(c4cc(OC)c(OC)cc4c2cc1OC)[C@H](N)[C@@H]1CCCN1C3`, the inhibition in vivo at 500 µg/mL in the assay on Tobacco mosaic virus [1] was 18.4%; in the assay with Tobacco mosaic virus [3], 17.6%; in the assay with Tobacco mosaic virus [8], 15.5%. Further, the inhibition in vivo at 100 µg/mL worked out at 0% in the assay with Tobacco mosaic virus [2], 11.2% in the assay on Tobacco mosaic virus [5] and 7.3% in the assay with Tobacco mosaic virus [7]. Moreover, in the assay with Tobacco mosaic virus [4], the inhibition at 500 µg/mL was 12.9%. The inhibition at 100 µg/mL with Tobacco mosaic virus [6] was determined as 0%.

For the compound `CCCCN[C@H]1c2c(c3cc(OC)c(OC)cc3c3cc(OC)ccc23)CN2C(=O)CC[C@H]12`, the inhibition in vivo at 500 µg/mL in the assay on Tobacco mosaic virus [1] was found to be 46.8%; in the assay with Tobacco mosaic virus [3], 43.3%; in the assay with Tobacco mosaic virus [8] it was 36.2%. Moreover, the inhibition in vivo at 100 µg/mL in the assay with Tobacco mosaic virus [2] was 14.3%; with Tobacco mosaic virus [5] it was 19.8%; with Tobacco mosaic virus [7], 17.6%. For the same compound, in the assay with Tobacco mosaic virus [4], the inhibition at 500 µg/mL amounted to 44.1%. In addition, in the assay on Tobacco mosaic virus [6], the inhibition at 100 µg/mL stood at 20.4%.

Turning to `CCCCN[C@H]1c2c(c3cc(OC)c(OC)cc3c3cc(OC)ccc23)CN2CCC[C@H]12`, the inhibition in vivo at 500 µg/mL is 54.2% in the assay on Tobacco mosaic virus [1], 42.3% with Tobacco mosaic virus [3] and 50.2% in the assay on Tobacco mosaic virus [8]. Also, the inhibition in vivo at 100 µg/mL in the assay with Tobacco mosaic virus [2] was found to be 16.7%; with Tobacco mosaic virus [5] it was 15.2%; in the assay with Tobacco mosaic virus [7], 20%. Also, in the assay on Tobacco mosaic virus [4], the inhibition at 500 µg/mL amounted to 51.4%. Moreover, in the assay on Tobacco mosaic virus [6], the inhibition at 100 µg/mL is 19.9%.

The values are drawn from ChEMBL document CHEMBL3045658, “Design, synthesis, antiviral activity, and SARs of 14-aminophenanthroindolizidines” (2012).
